# Measurements published in PMC6037852, “Design of Diarylheptanoid Derivatives as Dual Inhibitors Against Class IIa Histone Deacetylase and β-amyloid Aggregation” (Frontiers in Pharmacology, 2018).
# Tests used:
# HDAC5 = HDAC5 (Homo sapiens, UniProt Q9UQL6); test: HDAC fluorometric activity assay, HDAC5; conditions: IC50 Class IIa HDAC5, fluorogenic HDAC class IIa substrate 10 μM
# Aβ1-42 = biological target: T1, Aβ1-42 (Homo sapiens, UniProt P05067); test: Inhibition of Aβ1-42 self-aggregation, thioflavin-T (ThT) fluorescence assay; assay type: biochemical; conditions: 24 h; for IC50: read-out: Beta-Amyloid Aggregation IC50; for inhibition at 10 µM: single concentration of 10 μM, read-out: Beta-Amyloid Aggregation Inhibition (%)
# T1 construct: Aβ1-42 peptides were purchased from Kelowna International Scientific Inc; purchased Kelowna International Scientific Inc
# Experimental: Inhibition of Aβ1-42 self-aggregation was measured by thioflavin-T (ThT) fluorescence assay ([Hudson et al., 2009]). Aβ1-42 peptides were purchased from Kelowna International Scientific Inc. To avoid Aβ1-42 self-aggregation before the start of the experiment, Aβ1-42 peptides were dissolved in hexafluoroisopropanol (HFIP) to a concentration of 1 mM. The clear solution containing the dissolved peptide was then aliquoted in micro centrifuge tube. The solution was evaporated under vacuum to remove HFIP to give monomeric Aβ1-42. The monomeric Aβ1-42 was dissolved in NaOH(aq) (60 mM) to give a stock solution (1 mM). The Aβ1-42 stock solution was diluted with 50 mM phosphate buffer (containing 0.15 M NaCl, pH 7.4) before use. Fresh ThT stock solution was prepared by dissolving ThT (Sigma, T3516) in phosphate buffer and filtrated through […] Nylon syringe filter. The ThT stock solution and 400 mM ethylenediaminetetraacetic acid (EDTA) were diluted into the phosphate buffer to generate the working solution as background. A mixture of working solution (ThT final concentration: 10 μM), Aβ1-42 stock solution (Aβ1-42 final concentration: 10 μM) and the tested compounds were incubated on BioShake iQ ThermoMixer (37°C, 700 rpm) for 24 h. Fluorescence was measured by Victor 2X microplate spectrophotometer (excitation λ = 440 nm, emission λ = 486 nm), and adapted for 96-well microtiter plates. The fluorescence intensities were recorded and the percent inhibition due to the presence of the inhibitors were calculated by the following formula: (1 - IFi/IFc) × 100% where IFi and IFc were the fluorescence intensities obtained for Aβ1-42 in the presence and in the absence of inhibitors after subtracting the background, respectively. The IC50 values were calculated by the linear regression model of the data. All experiments were performed in triplicate.
# HDAC4 = biological target: T2, HDAC4 (Homo sapiens, UniProt P56524); test: HDAC fluorometric activity assay, HDAC4; assay type: biochemical; conditions: Boc-Lys(TFA)-AMC 10 μM; read-out: IC50 Class IIa HDAC4
# T2 construct: Genes encoding HDAC4 (residues 648–1057) flanked with NdeI and EcoRI sites; made in house; host or cells: E. coli BL21(DE3)
# Experimental: Proteins were expressed in BL21(DE3) cells by overnight induction with IPTG (1 mM) at 20–25°C and purified from cleared cell lysates by sequential chromatography on Ni-Sepharose 6 fast flow, Mono Q 5/50 GL, and Superdex 75 10/300 GL columns (GE Healthcare). Protein concentrations were quantified with Bradford Reagent (Bio-Rad).
# Enzyme, inhibitors and substrate were diluted with HDAC buffer (15 mM Tris-HCl pH 8.1, 0.25 mM EDTA, 250 mM NaCl, 10% v:v glycerol). Briefly, 10 μL diluted HDAC, i.e., HeLa nuclear extract (Enzo), HDAC6 (BPS), HDAC4, HDAC5 (BPS), HDAC7 (BPS) and HDAC9 (BPS), as well as 50 μL of testing compounds at different concentrations were added to each well of a 96-well microtiter plate and pre-incubated at 30°C for 5 min. […] The fluorescence in wells without test compounds (0.1% DMSO, negative control) was set as 100% enzymatic activity and the fluorescence in wells with enzyme eliminated was set as 0% enzymatic activity. The fluorescence ratio of test compounds to negative control was defined as percentage of remaining enzyme activity. The IC50 values were calculated by linear regression of the data. All experiments were performed in triplicate.
# HDAC9 = HDAC9 (Homo sapiens, UniProt Q9UKV0); test: HDAC fluorometric activity assay, HDAC9
# HeLa nuclear HDACs = test: HDAC fluorometric activity assay, HeLa nuclear extract; conditions: read-out: IC50 HeLa Nuclear HDACs; Boc-Lys(Ac)-AMC 10 μM
# HDAC7 = biological target: T3, HDAC7 (Homo sapiens, UniProt Q8WUI4); test: HDAC fluorometric activity assay, HDAC7; conditions: IC50 Class IIa HDAC7, fluorogenic HDAC class IIa substrate 10 μM
# T3 sequence (Q8WUI4 1-952): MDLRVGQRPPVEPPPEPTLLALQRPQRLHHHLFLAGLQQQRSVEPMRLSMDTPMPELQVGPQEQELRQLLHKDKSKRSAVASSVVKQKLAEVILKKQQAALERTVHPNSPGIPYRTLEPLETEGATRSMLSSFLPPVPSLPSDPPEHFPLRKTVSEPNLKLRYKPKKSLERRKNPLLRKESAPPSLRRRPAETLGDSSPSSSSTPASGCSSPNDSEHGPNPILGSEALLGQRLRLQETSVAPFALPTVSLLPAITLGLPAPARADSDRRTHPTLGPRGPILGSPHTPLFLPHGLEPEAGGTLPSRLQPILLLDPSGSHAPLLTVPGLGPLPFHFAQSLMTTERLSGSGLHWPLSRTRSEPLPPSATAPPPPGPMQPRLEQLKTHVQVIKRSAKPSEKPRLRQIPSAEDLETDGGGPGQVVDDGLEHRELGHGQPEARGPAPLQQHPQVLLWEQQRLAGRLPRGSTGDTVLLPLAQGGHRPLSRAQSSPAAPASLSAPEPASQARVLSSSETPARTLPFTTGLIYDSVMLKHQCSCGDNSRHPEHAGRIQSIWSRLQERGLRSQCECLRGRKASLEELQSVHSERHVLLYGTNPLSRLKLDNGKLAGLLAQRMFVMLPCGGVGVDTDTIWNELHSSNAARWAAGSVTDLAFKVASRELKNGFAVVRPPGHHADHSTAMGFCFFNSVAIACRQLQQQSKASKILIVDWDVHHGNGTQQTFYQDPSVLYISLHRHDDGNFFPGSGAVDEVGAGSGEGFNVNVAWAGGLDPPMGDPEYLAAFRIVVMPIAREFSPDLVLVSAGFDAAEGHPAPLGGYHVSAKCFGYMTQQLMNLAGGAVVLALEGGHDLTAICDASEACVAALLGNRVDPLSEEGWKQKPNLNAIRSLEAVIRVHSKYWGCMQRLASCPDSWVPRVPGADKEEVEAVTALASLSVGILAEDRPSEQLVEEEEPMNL
# HDAC5, sequence (Q9UQL6 whole entry): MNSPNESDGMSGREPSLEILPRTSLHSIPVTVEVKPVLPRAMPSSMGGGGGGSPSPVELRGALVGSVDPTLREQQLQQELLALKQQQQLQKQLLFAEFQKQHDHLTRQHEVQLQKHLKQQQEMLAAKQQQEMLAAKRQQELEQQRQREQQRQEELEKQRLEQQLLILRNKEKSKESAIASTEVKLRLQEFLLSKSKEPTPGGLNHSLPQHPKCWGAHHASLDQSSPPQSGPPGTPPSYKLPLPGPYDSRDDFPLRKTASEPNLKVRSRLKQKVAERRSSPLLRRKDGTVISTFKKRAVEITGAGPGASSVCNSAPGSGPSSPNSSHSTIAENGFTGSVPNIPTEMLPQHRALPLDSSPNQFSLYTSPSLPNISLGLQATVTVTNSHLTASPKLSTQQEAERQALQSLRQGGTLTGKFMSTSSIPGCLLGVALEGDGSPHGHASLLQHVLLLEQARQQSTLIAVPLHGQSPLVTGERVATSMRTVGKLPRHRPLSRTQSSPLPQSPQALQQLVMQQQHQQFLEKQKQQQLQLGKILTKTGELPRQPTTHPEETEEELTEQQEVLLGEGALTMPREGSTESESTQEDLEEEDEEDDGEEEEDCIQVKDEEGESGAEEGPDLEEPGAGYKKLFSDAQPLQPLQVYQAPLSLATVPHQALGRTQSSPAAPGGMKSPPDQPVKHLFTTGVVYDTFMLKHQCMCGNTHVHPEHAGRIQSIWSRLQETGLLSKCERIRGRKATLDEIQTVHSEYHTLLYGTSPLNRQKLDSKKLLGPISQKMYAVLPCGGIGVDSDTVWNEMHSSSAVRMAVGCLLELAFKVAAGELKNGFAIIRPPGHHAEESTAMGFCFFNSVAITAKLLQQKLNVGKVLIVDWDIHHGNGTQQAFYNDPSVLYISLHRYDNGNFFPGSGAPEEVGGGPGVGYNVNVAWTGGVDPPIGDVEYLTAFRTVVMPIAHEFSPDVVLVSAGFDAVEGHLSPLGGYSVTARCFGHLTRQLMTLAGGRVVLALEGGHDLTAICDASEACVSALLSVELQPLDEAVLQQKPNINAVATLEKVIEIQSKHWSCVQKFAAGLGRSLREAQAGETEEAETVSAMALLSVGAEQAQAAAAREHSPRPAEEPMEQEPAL
# HDAC9, sequence (Q9UKV0 whole entry): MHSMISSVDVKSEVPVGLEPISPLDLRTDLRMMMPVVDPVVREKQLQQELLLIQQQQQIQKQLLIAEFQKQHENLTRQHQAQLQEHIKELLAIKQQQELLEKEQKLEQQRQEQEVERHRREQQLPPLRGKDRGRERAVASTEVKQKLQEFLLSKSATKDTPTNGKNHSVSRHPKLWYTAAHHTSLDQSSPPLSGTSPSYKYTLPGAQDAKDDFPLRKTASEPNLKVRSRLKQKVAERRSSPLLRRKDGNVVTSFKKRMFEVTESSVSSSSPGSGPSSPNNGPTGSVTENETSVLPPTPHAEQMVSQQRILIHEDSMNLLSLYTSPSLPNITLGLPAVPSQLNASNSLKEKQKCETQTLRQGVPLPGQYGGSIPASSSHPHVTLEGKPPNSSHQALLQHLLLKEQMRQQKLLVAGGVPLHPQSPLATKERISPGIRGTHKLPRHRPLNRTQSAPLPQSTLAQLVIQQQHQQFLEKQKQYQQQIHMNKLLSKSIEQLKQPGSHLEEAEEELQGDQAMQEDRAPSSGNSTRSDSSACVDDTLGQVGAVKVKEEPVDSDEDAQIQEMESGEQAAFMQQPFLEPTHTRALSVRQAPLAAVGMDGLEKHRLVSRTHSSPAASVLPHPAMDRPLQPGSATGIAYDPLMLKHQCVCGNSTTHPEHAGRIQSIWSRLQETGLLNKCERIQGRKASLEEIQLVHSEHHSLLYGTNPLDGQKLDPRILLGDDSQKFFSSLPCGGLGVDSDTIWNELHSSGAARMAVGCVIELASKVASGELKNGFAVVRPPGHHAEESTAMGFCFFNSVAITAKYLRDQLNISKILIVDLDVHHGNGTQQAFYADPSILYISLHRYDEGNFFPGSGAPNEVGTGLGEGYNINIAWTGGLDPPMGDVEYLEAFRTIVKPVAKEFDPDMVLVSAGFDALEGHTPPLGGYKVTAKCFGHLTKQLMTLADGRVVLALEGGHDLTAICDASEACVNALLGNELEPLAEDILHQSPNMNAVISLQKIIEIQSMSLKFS
# T2 sequence (P56524 648-1057): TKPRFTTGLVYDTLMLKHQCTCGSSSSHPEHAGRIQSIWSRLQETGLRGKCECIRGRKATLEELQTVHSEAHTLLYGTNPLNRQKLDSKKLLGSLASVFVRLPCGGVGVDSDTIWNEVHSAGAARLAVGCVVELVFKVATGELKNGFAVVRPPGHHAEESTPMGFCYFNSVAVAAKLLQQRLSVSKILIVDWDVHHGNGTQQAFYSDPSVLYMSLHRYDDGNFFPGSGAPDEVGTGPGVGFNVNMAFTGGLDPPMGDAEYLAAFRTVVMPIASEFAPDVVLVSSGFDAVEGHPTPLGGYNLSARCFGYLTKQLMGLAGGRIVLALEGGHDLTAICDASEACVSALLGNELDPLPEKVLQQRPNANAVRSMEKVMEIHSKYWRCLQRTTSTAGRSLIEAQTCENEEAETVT
# T1 sequence (P05067 672-713 limits assumed): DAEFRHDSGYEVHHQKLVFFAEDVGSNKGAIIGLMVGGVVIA
Compound,IC50 (HDAC5),IC50 (Aβ1-42),inhibition at 10 µM (Aβ1-42),IC50 (HDAC4),IC50 (HDAC9),IC50 (HeLa nuclear HDACs),IC50 (HDAC7)
O=C(/C=C/c1ccccc1)CCCCc1ccccc1 [Compound 4a],> 40 µM,> 10 µM,11.9 ± 1%,> 40 µM,> 40 µM,> 40 µM,> 40 µM
O=C(/C=C/c1ccc(O)cc1)CCCCc1ccccc1 [Compound 4b],> 40 µM,> 10 µM,28.7 ± 6.3%,> 40 µM,> 40 µM,> 40 µM,> 40 µM
O=C(/C=C/c1ccc(O)c(O)c1)CCCCc1ccccc1 [Compound 4c],15.9 ± 1.5 µM,6.1 ± 1.3 µM,76.2 ± 2.7%,30.5 ± 0.7 µM,17.6 ± 0.3 µM,> 40 µM,8.4 ± 0.3 µM
O=C(/C=C/c1cccc(O)c1)CCCCc1ccccc1 [Compound 4d],> 40 µM,> 10 µM,0.7 ± 1.5%,> 40 µM,> 40 µM,> 40 µM,> 40 µM
O=C(/C=C/c1cccc(O)c1O)CCCCc1ccccc1 [Compound 4e],14.6 ± 0.2 µM,3.4 ± 0.6 µM,91.7 ± 2.5%,38.8 ± 0.1 µM,18.1 ± 0.4 µM,> 40 µM,8.6 ± 1 µM
O=C(/C=C/c1ccc(O)c(F)c1)CCCCc1ccccc1 [Compound 4f],> 40 µM,> 10 µM,34.9 ± 9.2%,> 40 µM,> 40 µM,> 40 µM,> 40 µM
O=C(/C=C/c1ccc(O)c(Cl)c1)CCCCc1ccccc1 [Compound 4g],> 40 µM,> 10 µM,27.8 ± 7.1%,> 40 µM,> 40 µM,> 40 µM,> 40 µM
O=C(/C=C/c1ccc(O)c(Br)c1)CCCCc1ccccc1 [Compound 4h],> 40 µM,> 10 µM,28.1 ± 2.1%,> 40 µM,> 40 µM,> 40 µM,> 40 µM
O=C(/C=C/c1ccc(O)c([N+](=O)[O-])c1)CCCCc1ccccc1 [Compound 4i],36.1 ± 3.7 µM,> 10 µM,49 ± 2.9%,> 40 µM,> 40 µM,> 40 µM,32.7 ± 2.1 µM
O=C(/C=C/c1cc(O)c(O)c(O)c1)CCCCc1ccccc1 [Compound 4j],7.1 ± 0.2 µM,3.6 ± 1 µM,78.7 ± 6.2%,> 40 µM,15.4 ± 1.8 µM,> 40 µM,3.8 ± 0.4 µM
COc1cc(/C=C/C(=O)CCCCc2ccccc2)ccc1O [Compound 4k],> 40 µM,> 10 µM,23.1 ± 6.4%,> 40 µM,> 40 µM,> 40 µM,> 40 µM
O=C(CCCCc1ccccc1)CCc1ccccc1 [Compound 5a],> 40 µM,> 10 µM,14 ± 3%,> 40 µM,> 40 µM,> 40 µM,> 40 µM
O=C(CCCCc1ccccc1)CCc1ccc(O)cc1 [Compound 5b],> 40 µM,> 10 µM,30.4 ± 1%,> 40 µM,> 40 µM,> 40 µM,> 40 µM
O=C(CCCCc1ccccc1)CCc1ccc(O)c(O)c1 [Compound 5c],3.8 ± 0.1 µM,5.8 ± 0.2 µM,67.8 ± 3.4%,18.1 ± 0.8 µM,5.3 ± 0.3 µM,> 40 µM,4.3 ± 0.5 µM
O=C(CCCCc1ccccc1)CCc1cccc(O)c1 [Compound 5d],> 40 µM,> 10 µM,-22.1 ± 2%,> 40 µM,> 40 µM,> 40 µM,> 40 µM
O=C(CCCCc1ccccc1)CCc1cccc(O)c1O [Compound 5e],4.8 ± 0.4 µM,6 ± 0.9 µM,65.9 ± 0.2%,35.9 ± 0.1 µM,9.3 ± 0.8 µM,> 40 µM,8.7 ± 0.7 µM
O=C(CCCCc1ccccc1)CCc1ccc(O)c(F)c1 [Compound 5f],> 40 µM,> 10 µM,22.1 ± 11.1%,> 40 µM,> 40 µM,> 40 µM,> 40 µM
O=C(CCCCc1ccccc1)CCc1ccc(O)c(Cl)c1 [Compound 5g],> 40 µM,> 10 µM,17.8 ± 2.8%,29.9 ± 2.3 µM,> 40 µM,> 40 µM,30.7 ± 0.7 µM
O=C(CCCCc1ccccc1)CCc1ccc(O)c(Br)c1 [Compound 5h],> 40 µM,> 10 µM,1 ± 3%,> 40 µM,> 40 µM,> 40 µM,> 40 µM
COc1cc(CCC(=O)CCCCc2ccccc2)ccc1O [Compound 5i],> 40 µM,> 10 µM,4.6 ± 11.7%,> 40 µM,> 40 µM,> 40 µM,> 40 µM
O=C(/C=C/c1ccc(O)c(O)c1)c1ccccc1 [Compound 7a],13.1 ± 4.4 µM,2.3 ± 0.2 µM,83.1 ± 1.9%,31.1 ± 0.8 µM,18.4 ± 0.6 µM,> 40 µM,9.6 ± 0.2 µM
O=C(/C=C/c1ccc(O)c(O)c1)Cc1ccccc1 [Compound 7b],13.7 ± 0.8 µM,2.1 ± 0.2 µM,79.4 ± 2.6%,39.8 ± 0.2 µM,29.2 ± 1.7 µM,> 40 µM,15.4 ± 3 µM
